Experimental data from the supplement of paper PMC3974653.
Counter-ions that a name gives are not always drawn.

Test system: MTT (mouse pheochromocytoma)
Experiment: IC50 of cell viability (ATP content)
Settings: (24 or 48 h)
In short: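 Cells of the MTT mouse pheochromocytoma line, 5 µl per well at 200,000 cells/ml, were grown overnight at 37°C, 5% CO2 in white 1536-well plates with DMEM, 5% FBS and 1% horse serum. Pintool transfer then delivered 23 nl of library compound in DMSO, giving 8 final concentrations from 0.5 nM to 46 µM, for an exposure of 24 or 48 hrs. Luminescence from CellTiter-Glo was read after 15 minutes and referenced to positive-control wells (100%) and DMSO wells (0%). IC50 was calculated with a four-parameter logistic fit.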

Row | SMILES | IC50 of cell viability [µM]
1 | O=C(O)[C@H]1CN(C/C=C/P(=O)(O)O)CCN1 [MIDAFOTELUM] | > 46
2 | CC1=NC=C2C\N=C(\C3=CC=CC=C3F)C4=CC(=CC=C4[N]12)Cl [MIDAZOLAM HYDROCHLORIDE] | > 46
3 | COP(=O)(OC)OC(c1ccc(Cl)cc1)P(=O)(OC)OC (configuration not stated) [MIFOBATUM] | > 46
4 | OCCN1CC(O)C(O)C(O)C1CO (configuration not stated) [MIGLITOL] | > 46
5 | CCCCN1CC(O)C(O)C(O)C1CO (configuration not stated) [MIGLUSTAT] | > 46
6 | CCN(CC)C(=O)[C@@]1(c2ccccc2)C[C@@H]1CN [MILNACIPRAN] | > 46
7 | CCCCCCCCCCCCCCCCOP(=O)([O-])OCC[N+](C)(C)C [MILTEFOSINE] | > 46
8 | Cc1cc(-c2ccccc2)nnc1NCCN1CCOCC1.Cl.Cl [MINAPRINE HYDROCHLORIDE] | > 46
9 | Cl.CN(C)C\1[C@@H]2C[C@H]3CC4=C(C(=CC=C4N(C)C)O)C(=O)\C3=C(O)\[C@]2(O)C(=O)\C(=C1O)C(N)=O (some centres not stated) [MINOCYCLINE HYDROCHLORIDE] | > 46
10 | Nc1cc(N2CCCCC2)nc(N)[n+]1[O-] [MINOXIDIL] | > 46
11 | O.O.O=C([O-])[C@H](CC(=O)N1C[C@H]2CCCC[C@H]2C1)Cc1ccccc1.O=C([O-])[C@H](CC(=O)N1C[C@H]2CCCC[C@H]2C1)Cc1ccccc1.[Ca+2] [MITIGLINIDE CALCIUM HYDRATE] | > 46
12 | O[C@@H]([C@H](O)[C@H](O)CBr)[C@H](O)CBr [MITOBRONITOL] | > 46
13 | COc1cc2c(cc1OC)[C@@H](Cc1cc(OC)c(OC)c(OC)c1)[N+](C)(CCCOC(=O)CC/C=C/CCC(=O)OCCC[N+]1(C)CCc3cc(OC)c(OC)cc3[C@H]1Cc1cc(OC)c(OC)c(OC)c1)CC2 (some centres not stated) [MIVACURIUM CHLORIDE] | > 46
14 | CN(c1nccc(O)n1)C1CCN(c2nc3ccccc3n2Cc2ccc(F)cc2)CC1 [MIZOLASTINE] | > 46
15 | CN(C)C(=O)CCSC(SCCC(=O)[O-])c1cccc(/C=C/c2ccc3ccc(Cl)cc3n2)c1 (configuration not stated) [MK-571] | > 46
16 | NC1(CCC1)C2=CC=C(C=C2)C3=C(C=C/4C(=N3)\C=C/N5C(=O)N\N=C45)C6=CC=CC=C6 [MK-2206] | > 46
17 | O=C(NCCN1CCOCC1)c1ccc(Cl)cc1 [MOCLOBEMIDE] | > 46
18 | NC(=O)C[S+]([O-])C(c1ccccc1)c1ccccc1 (configuration not stated) [MODAFINIL] | > 46
19 | CCOC(=O)C(CCc1ccccc1)NC(C)C(=O)N1Cc2cc(OC)c(OC)cc2CC1C(=O)O (configuration not stated) [MOEXIPRIL HYDROCHLORIDE] | > 46
20 | COc1ccc(-c2noc(CC(=O)O)c2-c2ccc(OC)cc2)cc1 [MOFEZOLAC] | > 46
21 | O=C(CCCN1CCN(c2ccc(F)cc2)CC1)NC1c2ccccc2CSc2ccccc21 (configuration not stated) [MONATEPIL MALEATE] | > 46
22 | CCCCCCCC(=O)OCC(O)CO (configuration not stated) [MONOCTANOIN] | > 46
23 | Cc1ncc(C[n+]2csc(CCOP(=O)(O)O)c2C)c(N)n1 [MONOPHOSPHOTHIAMINUM] | > 46

Row | SMILES | IC50 of cell viability [µM]
24 | CC(C)(O)c1ccccc1CC[C@H](SCC1(CC(=O)[O-])CC1)c1cccc(/C=C/c2ccc3ccc(Cl)cc3n2)c1 [MONTELUKAST SODIUM] | > 46
25 | c1ccc2sc(SN3CCOCC3)nc2c1 [MORPHOLINYLMERCAPTOBENZOTHIAZOLE] | > 46
26 | CCOc1cc(N)c(Cl)cc1C(=O)NCC1CN(Cc2ccc(F)cc2)CCO1 (configuration not stated) [MOSAPRIDE CITRATE] | > 46
27 | O=C(O)C(O)C(O)C(O)C(O)C(=O)O (configuration not stated) [MUCIC ACID] | > 46
28 | C/C(=C\C(=O)OCCCCCCCCC(=O)O)C[C@@H]1OC[C@H](C[C@@H]2O[C@H]2[C@@H](C)[C@H](C)O)[C@@H](O)[C@H]1O [MUPIROCIN] | > 46
29 | CCCCCCCCCCCCCCNCCO [MYRALACTUM] | > 46
30 | CO[C@@H]1[C@@H]([C@H](C)[C@@H]2O[C@@]3(CC[C@@](C)([C@H]4CC[C@@](C)([C@H]5O[C@H]([C@H]6O[C@](C)(O)[C@H](C)C[C@@H]6C)C[C@H]5O[C@H]5C[C@@H](OC)[C@H](OC)[C@@H](C)O5)O4)O3)C[C@@H](O)[C@@H]2C)O[C@@](O)(CC(=O)[O-])[C@H](C)[C@H]1OC [Maduramicin ammonium] | > 46
31 | NCc1ccc([S+](N)(=O)[O-])cc1 [Mafenide hydrochloride] | > 46
32 | CCOC(=O)CC(SP(=S)(OC)OC)C(=O)OCC (configuration not stated) [Malathion] | > 46
33 | O=C(O)/C=C/C(=O)Nc1ccc([S+](=O)([O-])Nc2nccs2)cc1 [Maleilsulfatiazol] | > 46
34 | OCC1OC(OC2C(CO)OC(OC3C(CO)OC(O)C(O)C3O)C(O)C2O)C(O)C(O)C1O (configuration not stated) [Maltotriose] | > 46
35 | O=C1OC2C(O)C(O)OC2C1O (configuration not stated) [Mannuronic acid lactone] | > 46
36 | Cc1nnc(C(C)C)n1C1C[C@H]2CC[C@@H](C1)N2CC[C@H](NC(=O)C1CCC(F)(F)CC1)c1ccccc1 (some centres not stated) [Maraviroc] | > 46
37 | CN1CCN(c2c(F)cc3c(=O)c(C(=O)O)cn4c3c2OCN4C)CC1 [Marbofloxacin] | > 46
38 | C=C1/C(=C\C=C2/CCC[C@@]3(C)[C@@H]([C@H](C)OCCC(C)(C)O)CC[C@@H]23)C[C@@H](O)C[C@@H]1O [Maxacalcitol] | > 46
39 | CC(N[NH3+])c1ccccc1 (configuration not stated) [Mebanazine] | > 46
40 | CCN(CCCCOC(=O)c1ccc(OC)c(OC)c1)[C@@H](C)Cc1ccc(OC)cc1 [Mebeverine hydrochloride] | > 46
41 | CN1CCc2c(c3ccccc3n2Cc2ccccc2)C1.CN1CCc2c(c3ccccc3n2Cc2ccccc2)C1.O=[S+]([O-])(O)c1cccc2c([S+](=O)([O-])O)cccc12 [Mebhydroline 1,5-naphtalenedisulfonate] | > 46
42 | CCOC(=O)c1c(C)n(C)c2ccc(O)cc12 [Mecarbinate] | > 46
43 | COC(=O)[C@@H](N)CS [Mecisteina] | > 46
44 | CN(C)[C@H]\1[C@@H]2[C@@H](O)[C@@H]\3C(=C)C4=C(Cl)C=CC(=C4C(=O)C3=C(\O)[C@@]2(O)C(=O)\C(=C1O)C(N)=O)O.OC(=O)C5=C(O)C=CC(=C5)[S+](O)([O-])=O [Meclocycline sulfosalicylate] | > 46
45 | Cc1ccc(Cl)c(Nc2ccccc2C(=O)[O-])c1Cl.O.[Na+] [Meclofenamic acid sodium salt monohydrate] | > 46
46 | CN(C)CCOC(=O)COc1ccc(Cl)cc1 [Meclofenoxate hydrochloride] | > 46

Row | SMILES | IC50 of cell viability [µM]
47 | CC/1=N/C2=CC=CC=C2C(=O)N1C3=C(Cl)C=CC=C3 [Mecloqualone] | > 46
48 | Cc1cccc(CN2CCN([C@@H](c3ccccc3)c3ccc(Cl)cc3)CC2)c1 [Meclozine dihydrochloride] | > 46
49 | C/C1=C2/N=C(C=C3N=C(/C(C)=C4\[N-][C@@H]([C@H](CC(N)=O)[C@]4(C)CCC(=O)NC[C@@H](C)OP(=O)([O-])O[C@@H]4[C@@H](O)[C@H](n5cnc6cc(C)c(C)cc65)O[C@@H]4CO)[C@@]4(C)N=C1[C@H](CCC(N)=O)[C@@]4(C)CC(N)=O)[C@H](CCC(N)=O)C3(C)C)[C@@H](CCC(N)=O)[C@@]2(C)CC(N)=O.[CH3-].[Co+3] [Mecobalamin] | > 46
50 | CN1CCN=C(c2ccccc2)c2cc(Cl)ccc21 [Medazepam] | > 46
51 | Cc1cccc(C(C)c2cnc[nH]2)c1C (configuration not stated) [Medetomidine hydrochloride] | > 46
52 | CC(=O)C1(O)CCC2C3CC(C)C4=CC(=O)CCC4(C)C3CCC21C (configuration not stated) [Medroxyprogesterone] | > 46
53 | C[C@H]/1C[C@H]2[C@H]3CC[C@@H](C(C)=O)[C@]3(C)C[C@@H](O)[C@@H]2[C@]4(C)CCC(=O)\C=C14 [Medrysone] | > 46
54 | Cc1cccc(Nc2ccccc2C(=O)O)c1C [Mefenamic acid] | > 46
55 | CC(=O)O[C@@]1(CC[C@@H]2[C@@H]3\C=C(C)/C4=C/C(=O)CC[C@@]4(C)[C@H]3CC[C@@]12C)C(C)=O [Megestrol acetate] | > 46
56 | CNC[C@H](O)[C@@H](O)[C@H](O)[C@H](O)CO [Meglumine] | > 46
57 | Cc1cnc(NC(=O)C2C(=O)c3ccccc3[S+](=O)([O-])N2C)s1 (configuration not stated) [Meloxicam] | > 46
58 | N[C@@H](Cc1ccc(N(CCCl)CCCl)cc1)C(=O)O [Melphalan] | > 46
59 | CC1(S(=O)(=O)[O-])CC(=O)c2ccccc2C1=O (configuration not stated) [Menadione sodium bisulfite] | > 46
60 | COc1ccc(C(=O)CCC(=O)O)c2ccccc12 [Menbutone] | > 46
61 | C[N+]1(C)CCC[C@H](OC(=O)C(O)(c2ccccc2)c2ccccc2)C1 [Mepenzolate bromide] | > 46
62 | COc1ccccc1OCC1CNC(=O)O1 (configuration not stated) [Mephenoxalone] | > 46
63 | CNC(C)(C)Cc1ccccc1 [Mephentermine hemisulfate] | > 46
64 | CCC1(c2ccccc2)C(=O)NC(=O)N(C)C1=O (configuration not stated) [Mephobarbital] | > 46
65 | [O-][n+]1cccc(CO)c1 [Mepiroxol] | > 46
66 | Cc1ccc2c(n1)Oc1ccc(C(C)C(=O)OCC(=O)N(C)C)cc1C2 (configuration not stated) [Mepranoprofen arbamel] | > 46
67 | C[C@H]1C[C@H]2[C@@H]3CCC4=CC(=O)C=C[C@]4(C)[C@H]3C(=O)C[C@]2(C)[C@@]1(O)C(=O)CO [Meprednisone] | > 46
